Data published in patent US8546435B2, “Triazole derivatives with improved receptor activity and bioavailability properties as ghrelin antagonists of growth hormone secretagogue receptors” (AEterna Zentaris GmbH, priority 2010, dated 2013).
Read-outs that look alike come from different tables or passages of the source.

Assays:
[1] = target: T1, Human Ghrelin Receptor (GHS-R 1A) (Homo sapiens (Human), UniProt Q92847); experiment: CRE/Luc reporter gene assay, antagonist; format: cell-based; details: 6 h, 1 μM rolipram
T1 sequence (Q92847 whole entry): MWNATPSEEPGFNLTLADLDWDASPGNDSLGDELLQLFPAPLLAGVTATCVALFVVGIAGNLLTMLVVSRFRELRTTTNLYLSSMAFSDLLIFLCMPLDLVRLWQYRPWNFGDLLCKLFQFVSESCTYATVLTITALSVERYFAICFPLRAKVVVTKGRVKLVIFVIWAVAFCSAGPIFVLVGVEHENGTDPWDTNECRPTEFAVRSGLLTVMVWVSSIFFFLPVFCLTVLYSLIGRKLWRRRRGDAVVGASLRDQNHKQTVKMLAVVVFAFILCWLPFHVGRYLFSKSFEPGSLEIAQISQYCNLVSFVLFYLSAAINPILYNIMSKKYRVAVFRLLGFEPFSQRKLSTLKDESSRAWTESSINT
Text: (§1) Mouse LTK-cells (ATCC CCL-1.3) were stably transfected with a plasmid containing the CMV minimal promoter (CMVmin) linked to three cAMP response elements (CRE) followed by a luciferase reporter gene. Based on this parental cell line, single cell clones stably overexpressing the human, rat or mouse GHS-R 1A have been established and characterized with respect to suitability for the different assay formats.
For the CRE/Luc reporter gene assay, the mouse LTK-cells stably expressing the human GHS-1RA and a luciferase reporter gene under the control of CRE elements and the CMV minimal promoter were incubated for 6 h with 1 μM rolipram in the presence of different concentrations of AEZS-130. Subsequently, cells were lysed and ATP bioluminescence was measured in the luminescence mode on FlexStation3 (Molecular Devices).
(§2) IC50 values were determined by using the GraphPad Prism analysis program (GraphPad Software).
(§3) Values given are either single measurements or mean values of up to nine independent experiments performed in duplicate (binding) or quadruplicate (functional assays) measurements.

[2] = target: MDR-1 (P-glycoprotein, Pgp) (Homo sapiens (Human), UniProt P08183); experiment: Inhibition of MDR1 ATPase (Pgp-Glo assay, SF9 membrane preparations); format: biochemical
Sequence of MDR-1 (P-glycoprotein, Pgp) (P08183 whole entry): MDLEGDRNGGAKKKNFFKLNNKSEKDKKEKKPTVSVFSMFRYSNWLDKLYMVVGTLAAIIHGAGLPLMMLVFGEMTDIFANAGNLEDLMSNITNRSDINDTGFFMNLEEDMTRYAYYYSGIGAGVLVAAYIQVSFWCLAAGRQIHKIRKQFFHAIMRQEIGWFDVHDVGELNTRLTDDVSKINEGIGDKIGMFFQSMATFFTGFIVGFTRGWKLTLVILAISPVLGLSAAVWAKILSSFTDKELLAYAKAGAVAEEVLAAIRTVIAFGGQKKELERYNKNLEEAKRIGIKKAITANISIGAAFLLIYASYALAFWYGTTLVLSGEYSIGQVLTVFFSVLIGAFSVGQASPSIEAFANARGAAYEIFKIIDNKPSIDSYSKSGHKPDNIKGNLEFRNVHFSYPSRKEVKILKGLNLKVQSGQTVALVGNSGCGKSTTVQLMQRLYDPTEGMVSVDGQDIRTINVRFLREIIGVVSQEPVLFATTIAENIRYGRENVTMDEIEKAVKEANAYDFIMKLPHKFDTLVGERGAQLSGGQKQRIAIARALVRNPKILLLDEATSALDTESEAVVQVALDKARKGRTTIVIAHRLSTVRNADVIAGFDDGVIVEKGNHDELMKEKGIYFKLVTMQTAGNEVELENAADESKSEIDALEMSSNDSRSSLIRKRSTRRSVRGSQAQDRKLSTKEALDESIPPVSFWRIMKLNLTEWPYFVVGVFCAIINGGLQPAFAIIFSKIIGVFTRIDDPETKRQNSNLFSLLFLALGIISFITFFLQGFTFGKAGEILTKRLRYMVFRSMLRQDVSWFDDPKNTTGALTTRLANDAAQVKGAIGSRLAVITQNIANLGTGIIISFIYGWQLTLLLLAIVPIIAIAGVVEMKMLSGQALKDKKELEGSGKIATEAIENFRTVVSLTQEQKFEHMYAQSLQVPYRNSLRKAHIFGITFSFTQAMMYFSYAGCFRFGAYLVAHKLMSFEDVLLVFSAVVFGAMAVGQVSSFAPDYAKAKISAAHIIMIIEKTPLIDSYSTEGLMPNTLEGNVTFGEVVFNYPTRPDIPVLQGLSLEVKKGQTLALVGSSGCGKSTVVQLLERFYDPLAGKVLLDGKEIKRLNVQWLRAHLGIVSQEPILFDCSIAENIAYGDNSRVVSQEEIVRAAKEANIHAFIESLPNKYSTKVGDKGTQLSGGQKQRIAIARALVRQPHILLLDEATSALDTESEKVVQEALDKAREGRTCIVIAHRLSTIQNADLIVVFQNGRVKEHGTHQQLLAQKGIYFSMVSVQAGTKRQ
Protocol: For detection of MDR-1 (P-glycoprotein, Pgp) ATPase activity commercially available membrane preparations of MDR-1 overexpressing SF9 insect cells (SB-MDR1-Sf9-ATPase Membrane; 2.5 mg/500 μL; Solvo/tebu-bio #168SB-MDR1-Sf9-ATPase) were used. Since transport by MDR-1 is ATP-dependent, ATP consumption indicates transport activity of MDR-1. ATP consumption is detected as a decrease in luminescence from a second reaction with a recombinant firefly luciferase by using the Pgp-Glo™ Assay Kit (Promega # V3591).

hERG channel = hERG channel (Homo sapiens (Human), UniProt Q12809); experiment: Predictor hERG Fluorescence Polarization Assay; format: binding
Sequence of hERG channel (Q12809 whole entry): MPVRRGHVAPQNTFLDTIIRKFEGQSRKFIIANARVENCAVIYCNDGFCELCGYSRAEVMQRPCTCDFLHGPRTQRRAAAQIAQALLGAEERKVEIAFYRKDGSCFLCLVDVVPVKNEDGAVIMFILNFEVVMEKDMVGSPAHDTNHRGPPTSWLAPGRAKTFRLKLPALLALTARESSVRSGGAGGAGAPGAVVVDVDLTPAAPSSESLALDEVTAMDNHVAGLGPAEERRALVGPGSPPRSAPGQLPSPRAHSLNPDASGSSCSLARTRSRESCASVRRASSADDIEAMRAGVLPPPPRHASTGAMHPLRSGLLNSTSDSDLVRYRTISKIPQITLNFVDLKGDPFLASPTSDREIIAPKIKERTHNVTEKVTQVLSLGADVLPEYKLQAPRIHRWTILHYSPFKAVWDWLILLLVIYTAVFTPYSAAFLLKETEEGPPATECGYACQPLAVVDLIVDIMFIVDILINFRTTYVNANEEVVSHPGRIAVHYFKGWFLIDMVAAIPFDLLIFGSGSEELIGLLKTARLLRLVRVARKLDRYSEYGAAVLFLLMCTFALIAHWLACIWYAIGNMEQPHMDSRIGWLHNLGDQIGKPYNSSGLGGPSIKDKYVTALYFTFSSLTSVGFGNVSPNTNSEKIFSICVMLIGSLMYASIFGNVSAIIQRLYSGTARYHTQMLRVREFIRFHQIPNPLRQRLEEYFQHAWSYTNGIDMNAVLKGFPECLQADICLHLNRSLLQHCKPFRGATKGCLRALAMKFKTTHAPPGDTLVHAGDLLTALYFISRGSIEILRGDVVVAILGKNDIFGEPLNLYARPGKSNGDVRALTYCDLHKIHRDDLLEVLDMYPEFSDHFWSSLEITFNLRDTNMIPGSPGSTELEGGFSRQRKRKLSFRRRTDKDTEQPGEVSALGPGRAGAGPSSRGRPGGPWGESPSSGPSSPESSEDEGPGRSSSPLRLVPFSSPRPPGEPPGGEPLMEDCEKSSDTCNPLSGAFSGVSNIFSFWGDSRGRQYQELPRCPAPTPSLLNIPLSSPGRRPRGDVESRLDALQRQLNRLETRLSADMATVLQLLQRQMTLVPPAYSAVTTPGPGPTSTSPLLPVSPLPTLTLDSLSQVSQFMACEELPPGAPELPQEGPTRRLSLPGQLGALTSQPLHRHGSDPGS
Text: The Predictor™ hERG Fluorescence Polarization Assay (Invitrogen, Karlsruhe, GER) determines whether test compounds block the hERG channel [Piper, D. R. et al., Assay Drug Dev Technol. 2008, 6(2):213-23]. The assay uses a membrane fraction containing hERG channel protein (Predictor™ hERG Membrane) and a high-affinity red fluorescent hERG channel ligand, or “tracer” (Predictor™ hERG Tracer Red), in a homogenous, fluorescence polarization (FP)-based format. Compounds that bind to the hERG channel protein (competitors) are identified by their ability to displace the tracer, resulting in a lower fluorescence polarization. The assay was performed according to guidelines of the manufacturer

[3] = Stability in liver microsomes; format: in vitro ADME, rat; details: @37° C./1 mg/ml Liver Microsomes, 10 μM
Protocol: Metabolic stability in liver microsomes of different species (in the presence of NADPH, 1 mg/ml microsomal protein) was evaluated at 37° C. over time in triplicates at a test concentration of 10 μM. Loss of parent compound is measured by an HPLC-based UV detection method. For prediction of rat hepatic clearance half-lives (t1/2) were fitted from first-order rate constant k (min^−1) obtained from the slope of time versus In % remaining.

[4] = target: T1, Human Ghrelin Receptor (GHS-R 1A); experiment: Calcium release, antagonist; format: cell-based; details: 15 minutes preincubation, then ghrelin
Text: as §1
(§4) For determination of calcium release the respective cell line was loaded with Fluo-4 NW Calcium Assay Kit (Moleculare Probes/Invitrogen # F10741) for 80 min @ 37° C. After 15 minutes of preincubation with different concentrations of the test compounds ghrelin was added and the signal was monitored for 60 seconds by a FlexStation3 microplate reader (Molecular Devices).
as §2, §3

CYP3A4 = CYP3A4 (Homo sapiens (Human), UniProt P08684); experiment: CYP3A4 inhibition in human liver microsomes, direct and metabolism-dependent; format: in vitro ADME
Sequence of CYP3A4 (P08684 whole entry): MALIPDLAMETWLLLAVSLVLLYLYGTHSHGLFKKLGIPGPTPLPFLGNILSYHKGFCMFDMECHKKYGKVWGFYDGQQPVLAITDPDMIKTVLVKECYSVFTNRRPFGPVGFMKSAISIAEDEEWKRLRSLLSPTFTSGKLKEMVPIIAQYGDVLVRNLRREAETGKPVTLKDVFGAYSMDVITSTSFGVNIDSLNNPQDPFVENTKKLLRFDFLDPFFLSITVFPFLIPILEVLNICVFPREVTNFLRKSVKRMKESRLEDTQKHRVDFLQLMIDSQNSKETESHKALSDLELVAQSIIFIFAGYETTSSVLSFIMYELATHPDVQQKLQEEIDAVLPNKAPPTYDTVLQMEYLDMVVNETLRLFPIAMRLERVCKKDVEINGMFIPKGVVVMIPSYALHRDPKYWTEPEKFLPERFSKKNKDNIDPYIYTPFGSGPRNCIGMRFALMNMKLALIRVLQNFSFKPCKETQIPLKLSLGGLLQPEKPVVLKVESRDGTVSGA
Protocol: Direct and metabolism-dependent inhibition of CYP enzymes are assessed with specific marker substrates by a HPLC-based UV detection method in human liver microsomes. Incubations are carried out as doublets with final concentrations ranging from 0.01 to 200 μM (30 min, 37° C.). Metabolism-dependent inhibition was assessed by incubation for 30 minutes in the presence of NADPH prior to the addition of marker substrate to allow the generation of metabolites. Percent inhibition is plotted against concentration to calculate or extrapolate IC50 values from the sigmoid curve.

[5] = target: T1, Human Ghrelin Receptor (GHS-R 1A); experiment: Competitive binding, iodinated ghrelin tracer, intact LTK-cells overexpressing GHS-R 1A; details: 60 min at 37° C.
Text: as §1
For receptor competitive binding studies, iodinated ghrelin was used as a tracer at conditions of about 80% saturation binding. Different concentrations of the test compounds were analyzed for displacement of the tracer. For this purpose, the suspension of intact cells plus tracer mix and different test compound concentrations was layered on top of silicon/paraffin oil, incubated for 60 min at 37° C. and subjected to centrifugation. After freezing in liquid nitrogen the cell pellets were separated from the supernatant by cutting the tubes in the intermediate silicon/paraffin oil section and analyzed by γ-radiation analysis. The amount of unspecific binding was determined by including unlabeled ghrelin at 1 μM final concentration.
as §2, §3

[6] = CaCo-2 permeability assay; format: in vitro ADME; details: human; for Papp A→B at 2 h: a to b, read-out: CaCo-2 Assay Papp ab; for Papp A→B at 2 h / Papp B→A at 2 h: 3 or 5 μM, 2 hours at 37° C.; for Papp B→A at 2 h: b to a, read-out: CaCo-2 Assay Papp ba; for efflux ratio at 2 h: read-out: CaCo-2 Assay ba/ab
Protocol: For the CaCo-2 permeability assay 80.000 CaCo-2 cells (ATCC HTB-37) were seeded in DMEM supplemented with 10% FCS, 1% Penicillin/Streptomycin and 1% non-essential amino acids per 24 well transwell plate (Corning 3397) and were grown for 21 days by changing the media every second day. On day 21 the medium was replaced by HBSS buffer (Invitrogen #14065) supplemented with 0.25% and 1% BSA for the donor and acceptor compartment, respectively. The compounds were added to the respective donor compartment in a concentration of 3 or 5 μM and were incubated for 2 hours at 37° C. The respective compound concentrations were determined by LC-MS analytics using an API 2000. Data analysis was performed as described by Sun and Pang 2008, Drug Metabolism and Disposition 36, 102-123.

[7] = target: Mouse Ghrelin Receptor (GHS-R 1A) (Mus musculus (Mouse), UniProt Q99P50); experiment: Calcium release, antagonist; format: cell-based; details: 15 minutes preincubation, then ghrelin; read-out: Mouse Ghrelin Receptor Antagonist Calcium Release IC50
Sequence of Mouse Ghrelin Receptor (GHS-R 1A) (Q99P50 whole entry): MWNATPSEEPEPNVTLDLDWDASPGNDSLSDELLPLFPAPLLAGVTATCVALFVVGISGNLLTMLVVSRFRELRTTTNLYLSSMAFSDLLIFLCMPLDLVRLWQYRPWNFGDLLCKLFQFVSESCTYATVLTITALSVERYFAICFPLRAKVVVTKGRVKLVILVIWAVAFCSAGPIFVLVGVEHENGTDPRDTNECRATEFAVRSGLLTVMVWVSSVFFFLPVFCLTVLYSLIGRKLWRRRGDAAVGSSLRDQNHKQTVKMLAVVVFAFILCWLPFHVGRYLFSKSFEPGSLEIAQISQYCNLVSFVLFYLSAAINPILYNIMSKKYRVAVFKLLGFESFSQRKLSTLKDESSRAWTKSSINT
Text: as §1, §4, §2
(§5) In the following table 1 results obtained for selected compounds of the invention are presented in comparison to compound 50 disclosed in WO07/020,013. Values given are either single measurements or mean values of up to nine independent experiments performed in duplicate (binding) or quadruplicate (functional assays) measurements.

[8] = target: Rat Ghrelin Receptor (GHS-R 1A) (Rattus norvegicus (Rat), UniProt O08725); experiment: Calcium release, antagonist; format: cell-based; details: 15 minutes preincubation, then ghrelin; read-out: Rat Ghrelin Receptor Antagonist Calcium Release IC50
Sequence of Rat Ghrelin Receptor (GHS-R 1A) (O08725 whole entry): as the sequence (Q99P50 whole entry) above, with S30P, S249A counted along it
Text: as §1, §4, §2, §5

[9] = marker substrate testosteron, 30 minutes preincubation with NADPH, read-out: CYP3A4 Inhibition Testosteron Preincubation EC50
[10] = marker substrate testosteron, direct inhibition, human liver microsomes, read-out: CYP3A4 Inhibition Testosteron EC50

## COc1ccc(Cn2c([C@@H](Cc3ccccc3)NC(C)=O)nnc2[C@@H](Cc2c[nH]c3ccccc23)NC(=O)CO)cc1.O=C(O)C(F)(F)F [Cpd 6, N-[(R)-1-[5-((R)-1-Acetylamino-2-phenyl-ethyl)-4-(4-methoxy-benzyl)-4H-[1,2,4]triazol-3-yl]-2-(1H-indol-3-yl)-ethyl]-2-hydroxy-acetamide]
[1]
  IC50: 7.8 nM
[2]
  Inhibition of MDR1 ATPase EC50: no inhibition
hERG channel
  hERG Predictor EC50: no inhibition
[3]
  Stability in Liver Microsomes Rat % Remaining after 1 h Incubation: 27.1%
[4]
  IC50: 2.1 nM
CYP3A4; [9]
  EC50: 1400 nM
CYP3A4; [10]
  EC50: 34300 nM
[5]
  IC50: 3 nM

## COc1ccc(Cn2c([C@@H](Cc3c[nH]c4ccccc34)NC(C)=O)nnc2[C@@H](Cc2c[nH]c3ccccc23)NC(=O)C(C)(C)N)cc1.O=C(O)C(F)(F)F [Cpd 8, N-[(R)-1-[5-[(R)-1-Acetylamino-2-(1H-indol-3-yl)-ethyl]-4-(4-methoxy-benzyl)-4H-[1,2,4]triazol-3-yl]-2-(1H-indol-3-yl)-ethyl]-2-amino-2-methyl-propionamide]
[1]
  IC50: 22.4 nM
[6]
  Papp A→B at 2 h: 0.08 ± 0.08 ×10⁻⁶ cm/s
  Papp B→A at 2 h: 0.74 ± 0.03 ×10⁻⁶ cm/s
  efflux ratio at 2 h: 9.25
[2]
  EC50: 196000 nM
[7]
  IC50: 363 nM
[8]
  IC50: 1050 nM
hERG channel
  hERG Predictor EC50: no inhibition
[3]
  Stability in Liver Microsomes Rat % Remaining after 1 h Incubation: 64.3%
[4]
  IC50: 19.1 nM
CYP3A4; [9]
  EC50: 900 nM
CYP3A4; [10]
  EC50: 31200 nM
[5]
  IC50: 1.4 nM

## COc1ccc(Cn2c([C@@H](Cc3c[nH]c4ccccc34)NC=O)nnc2[C@@H](Cc2c[nH]c3ccccc23)NC(=O)C(C)(C)N)cc1.O=C(O)C(F)(F)F [Cpd 9, 2-Amino-N-[(R)-1-[5-[(R)-1-formylamino-2-(1H-indol-3-yl)-ethyl]-4-(4-methoxy-benzyl)-4H-[1,2,4]triazol-3-yl]-2-(1H-indol-3-yl)-ethyl]-2-methyl-propionamide]
[1]
  IC50: 58.6 nM
[2]
  EC50: 836 nM
hERG channel
  hERG Predictor EC50: no full dose
[3]
  Stability in Liver Microsomes Rat % Remaining after 1 h Incubation: 54.8%
[4]
  IC50: 32.6 nM
CYP3A4; [9]
  EC50: 1500 nM
CYP3A4; [10]
  EC50: 10000 to 30000 nM
[5]
  IC50: 3.2 nM

## CCOC(=O)Cc1nnc([C@@H](Cc2c[nH]c3ccccc23)NC(=O)c2cccnc2)n1Cc1ccc(OC)cc1 [Cpd 1, [5-{(R)-2-(1H-Indol-3-yl)-1-[(pyridine-3-carbonyl)-amino]-ethyl}-4-(4-methoxy-benzyl)-4H-[1,2,4]triazol-3-yl]-acetic acid ethyl ester]
[1]
  IC50: 12.8 nM
[4]
  IC50: 3 nM

## COc1ccc(Cn2c(CCc3c[nH]c4ccccc34)nnc2[C@@H](Cc2ccc3ccccc3c2)NC(=O)OC(C)(C)C)cc1.O=C(O)C(F)(F)F [Cpd 15, {(R)-1-[5-[2-(1H-Indol-3-yl)-ethyl]-4-(4-methoxy-benzyl)-4H-[1,2,4]triazol-3-yl]-2-naphthalen-2-yl-ethyl}-carbamic acid tert-butyl ester]
[1]
  IC50: 24.9 nM
[2]
  EC50: 16300 nM
[3]
  Stability in Liver Microsomes Rat % Remaining after 1 h Incubation: 37.8%
[4]
  IC50: 39.9 nM
[5]
  IC50: 16.5 nM

## COc1ccc(Cn2c([C@@H](Cc3ccccc3)NC(C)=O)nnc2[C@@H](Cc2c[nH]c3ccccc23)NC(=O)[C@@H]2CNCCO2)cc1.O=C(O)C(F)(F)F [Cpd 7, (S)-Morpholine-2-carboxylic acid [(R)-1-[5-((R)-1-acetylamino-2-phenyl-ethyl)-4-(4-methoxy-benzyl)-4H-[1,2,4]triazol-3-yl]-2-(1H-indol-3-yl)-ethyl]-amide]
[1]
  IC50: 9.5 nM
[2]
  EC50: 1080 nM
hERG channel
  hERG Predictor EC50: no inhibition
[3]
  Stability in Liver Microsomes Rat % Remaining after 1 h Incubation: 82.7%
[4]
  IC50: 3.8 nM
CYP3A4; [9]
  EC50: 1100 nM
CYP3A4; [10]
  EC50: 27000 nM
[5]
  IC50: 3.4 nM

## COc1ccc(Cn2c([C@@H](Cc3c[nH]c4ccccc34)NC(C)=O)nnc2[C@@H](Cc2c[nH]c3ccccc23)NC(=O)c2ccccn2)cc1.O=C(O)C(F)(F)F [Cpd 3, Pyridine-2-carboxylic acid [(R)-1-[5-[(R)-1-acetylamino-2-(1H-indol-3-yl)-ethyl]-4-(4-methoxy-benzyl)-4H-[1,2,4]triazol-3-yl]-2-(1H-indol-3-yl)-ethyl]-amide]
[1]
  IC50: 2.2 nM
[6]
  Papp A→B at 2 h: 0.37 ± 0.02 ×10⁻⁶ cm/s
  Papp B→A at 2 h: 17.2 ± 0.42 ×10⁻⁶ cm/s
  efflux ratio at 2 h: 51.9
[2]
  EC50: 38600 nM
[7]
  IC50: 29.2 nM
[8]
  IC50: 29.9 nM
hERG channel
  hERG Predictor EC50: no inhibition
[3]
  Stability in Liver Microsomes Rat % Remaining after 1 h Incubation: 38.5%
[4]
  IC50: 2.5 nM
CYP3A4; marker substrate midazolam, 30 minutes preincubation with NADPH, read-out: CYP3A4 Inhibition Midazolam Preincubation EC50
  EC50: 980 nM
CYP3A4; marker substrate midazolam, direct inhibition, human liver microsomes, read-out: CYP3A4 Inhibition Midazolam EC50
  EC50: 3200 nM
[5]
  IC50: 0.6 nM
